The source of these data is patent US8822509B2, “Pain-relieving compositions and uses therefor” (priority 2006, dated 2014).

Read-outs that look alike come from different tables or passages of the source. Marks after values point to notes of the source that are not given here.

For series [1], the target named is T1, μ-opioid receptors (MOP receptors) (Mus musculus, UniProt P42866).
T1 construct: expressed in transfected cells; host or cells: HEK293
The format is cell-based. The procedure:
Briefly, HEK-MOP cells were pre-incubated with 2% (2-hydroxypropyl)-β-cyclodextrin (βCD) for 1 h at 37° C. to deplete cholesterol from caveloae in the cell membrane. Cells were washed with DMEM and then utilized in the forskolin-stimulated cAMP assay as described above. […] Cells were washed with DMEM and then utilized in the forskolin-stimulated cAMP assay as described above.

Series [2] is described as follows: In vitro NO release (Total NOx, modified Griess reagent assay). As to conditions: assay of Example 9; for 1 Hour Total NOx: NOx analysis at 1 hour; for 6 Hours Total NOx: NOx analysis at 6 hours. The procedure:
Briefly, HEK-MOP cells were seeded at 1×10^5 cells/mL and grown in 10 cm plates to 90% confluence. Four hours prior to experimentation, cell medium was replaced with phenol red-free DMEM. […] Following removal of each supernatant sample, it was replaced with 500 μL of phenol red-free DMEM. Samples were immediately placed on ice until NOx concentrations were quantified.
Sample aliquots (100 μL) were added to 96-well plates in duplicates. Nitrate was first converted to nitrite to determine total NOx concentrations with the addition of 100 μL aliquots of vanadium (III) chloride in 1M HCl (800 mg/100 mL) per well, followed by 100 μL aliquots of modified Griess reagent which converted nitrite to a deep purple azo derivative for spectrophotometric quantification at 560 nm using an Envision Multilabel Plate Reader (PerkinElmer Life Sciences). […] Total NOx and nitrite concentration was determined through inverse prediction against the nitrite standard curve.
In general terms: Griess reagent forms a coloured azo dye with nitrite.

Series [3] concerns the target T1, μ-opioid receptors (MOP receptors). In kind it is cell-based. This is another data set of the same source.
For series [4], the system named is mechanical allodynia in rats hyporesponsive to morphine. Kind of series: Relief of mechanical allodynia (PWT) in rats hyporesponsive to morphine. The format is in vivo.
Series [5] has as its system tactile (mechanical) allodynia in hindpaws of STZ-diabetic rats. Kind of series: Anti-allodynia by von Frey paw withdrawal thresholds (PWT) in STZ-diabetic rats. The format is in vivo, Wistar rats. The protocol:
Following this, the jugular cannula was withdrawn, the vein tied off, and the incision sutured. Following surgery, rats received antibiotic prophylaxis in the form of topical dusting powder over the sutured incisions, as well as a subcutaneous injection of benzylpenicillin (60 mg). Rats were placed in individual cages, kept warm and monitored closely during the surgical recovery period. Rats were classified as diabetic if on day 10 post-STZ administration, their daily water intake was ≧100 mL and their corresponding blood glucose levels (BGLs) were ≧15 mM.
Calibrated von Frey filaments were used to document the time course for the development and maintenance of tactile allodynia (defining symptom of PDN).
(§1) Briefly, baseline PWTs were determined for both hindpaws prior to each antinociceptive testing session in the non-diabetic control group at week 0 as well as in groups of STZ-diabetic rats at 10, 14 and 24 wks.
(§2) The PWT vs time data were normalized by subtracting the pre-dosing baseline PWT values for each individual rat to obtain ΔPWT values as follows: Normalized (Δ)PWT value=Post-treatment PWT value−PWT value prior to treatment.
(§3) ΔPWT versus time curves were then constructed. Trapezoidal integration was used to estimate ΔPWT AUC values for individual rats in the non-diabetic and STZ-diabetic rat treatment groups. ΔPWT AUC versus dose curves were constructed and GraphPad™ Prism was used to estimate the ˜ED50 values.

Series [6] deals with hindpaws of control non-diabetic rats. Kind of series: Antinociception by von Frey PWT in control non-diabetic rats. In kind it is in vivo, Wistar rats. As to conditions: single s.c. bolus; morphine 1.8-21.4 μmol/kg, Compound 1 2-20 fmol/kg. The procedure:
as §1, §2, §3

The subject of series [7] is STZ-diabetic rats. Kind of series: Behavioural side-effects in STZ-diabetic rats. As to conditions: Compound 1 800 pmol/kg s.c.; morphine 21 μmol/kg. The format is in vivo.
Series [8] relates to non-diabetic control rats. The experiment in a line: Tolerance development (7-day continuous s.c. infusion, 2-day washout) in non-diabetic control rats, von Frey PWT. The format is in vivo.
Series [9] concerns STZ-diabetic rats. Kind of series: Tolerance development (7-day s.c. infusion, 2-day washout) in STZ-diabetic rats, von Frey PWT. In kind it is in vivo.
The mark [10] stands for this setting: week 10 post-STZ, morphine 2.8 μmol/kg s.c.
[11] abbreviates: drug-naïve non-diabetic rats, Compound 1 8 fmol/kg, morphine 2.8 mmol/kg (so in the source) s.c. bolus.
Where [12] appears, read: non-diabetic rats, second s.c. bolus after 7-day infusion and 2-day washout.

T1 sequence (P42866 whole entry): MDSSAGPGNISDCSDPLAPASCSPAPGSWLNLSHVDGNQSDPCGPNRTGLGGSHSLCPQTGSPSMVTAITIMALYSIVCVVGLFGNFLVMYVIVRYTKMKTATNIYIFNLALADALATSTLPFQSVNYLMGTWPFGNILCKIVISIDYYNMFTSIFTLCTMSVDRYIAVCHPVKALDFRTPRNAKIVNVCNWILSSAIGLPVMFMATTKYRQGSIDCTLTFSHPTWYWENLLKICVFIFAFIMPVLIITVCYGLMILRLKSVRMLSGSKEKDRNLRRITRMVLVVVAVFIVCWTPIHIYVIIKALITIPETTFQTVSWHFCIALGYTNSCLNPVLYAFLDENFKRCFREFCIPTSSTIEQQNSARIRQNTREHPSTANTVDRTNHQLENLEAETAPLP

Turning to `O=C1CCc2c1no[n+]2[O-]` [Compound 16], the “% of forskolin stimulated cyclic AMP response” value in [1] (Conc 10^−3 M) is given as 18.9%; in series [1] (Conc 10^−4 M) it was 44.3%; in [1] (Conc 10^−5 M), 105.2%; in [1] (Conc 10^−6 M), 83.5%; in series [1] (Conc 10^−7 M) it was 119.9%; in series [1] (Conc 10^−8 M), 62.2%. In addition, the “% of forskolin stimulated cyclic AMP response” value in series [1] (Conc 10^−9 M) was 125.4%; in [1] (Conc 10^−11 M) it was 67.1%; in [1] (Conc 10^−13 M) it was 98.8%; in [1] (Conc 10^−14 M) it was 106.3%; in series [1] (Conc 10^−15 M) it was 97.7%; in series [1] (Conc 10^−16 M), 108.3%. In addition, the “% of forskolin stimulated cyclic AMP response” value in series [1] (Conc 10^−17 M) was 100.4%; in series [1] (Conc 10^−18 M) it was 62.4^a %; in series [3] (Conc 10^−10 M) it was 101.3%; in series [3] (Conc 10^−12 M), 59.3%. The “1 Hour Total NOx” value in series [2] came to 1.08 µM. Also, the “6 Hours Total NOx” value in [2] is 1.19 µM.

With `O=C(O)CCCCO[N+](=O)[O-]` [Compound 33, 5-nitratopentanoic acid], in [2], the “1 Hour Total NOx” value is 13.14 µM and the “6 Hours Total NOx” value came to 67.69 µM. Further, the “relief of mechanical allodynia” value in series [4] (Compound 33 80 nmol/kg s.c. bolus) is “insignificant relief”. In addition, in [4] (Compound 33 120, 800 and 1200 nmol/kg s.c. bolus), the “relief of mechanical allodynia” value is “significant relief of mechanical allodynia”. Besides, in series [4] (Compound 33 s.c. bolus), the duration of anti-allodynia lay in the range of 2 to 3 h and the “time of peak anti-allodynia post-dosing” value lay in the range of 0.75 to 1 h. Moreover, the “inhibition of forskolin-stimulated cyclic AMP formation” value in series [3] (μm to mm range (so in the source)) was “dose dependent inhibition”.

As to `CN1CC[C@]23c4c5ccc(O)c4O[C@H]2[C@@H](O)C=C[C@H]3[C@H]1C5` [morphine, reference compound], the “time of peak effect post-dosing” value in series [5] (morphine 1.8-21.4 μmol/kg s.c. (FIG. 2)) was 30 to 60 min. For the same compound, the “anti-allodynia in the hindpaws of STZ-diabetic rats” value in series [5] (single s.c. bolus at 10, 14, 24 wks post-STZ) was “dose-dependent anti-allodynia”. The “mean (±SEM) PWT at time of peak response” value in series [5] (setting [10]) is 10.7 ± 0.6 g. Also, the “reversal of mechanical allodynia at time of peak response” value in series [5] (setting [10]) was “fully reversed mechanical allodynia”. For the same compound, the anti-allodynic potency result in [5] (week 14 post-STZ, morphine 2.8 μmol/kg s.c.) is given as “significantly reduced”; in series [5] (week 24 post-STZ, morphine 10.5 and 21.4 μmol/kg s.c.), “markedly reduced”. Also, the “relief of mechanical allodynia at time of peak response” value in [5] (week 14 post-STZ, morphine 10.5 μmol/kg s.c.) is “completely relieved mechanical allodynia”. Also, the “antinociception in the hindpaws of control non-diabetic rats” value in series [6] was “dose-dependent antinociception”. In addition, the “behavioural side-effects at highest dose” value with STZ-diabetic rats [7] is “staring and sedation”. In series [8] (drug-naïve non-diabetic rats, first s.c. bolus), the “time of peak antinociception post-dosing” value was 1 h. For the same compound, the “mean (±SEM) peak PWT” value is listed as 16.0 (±0.4) g in [8] (setting [11]); 12 (±0.3) g in series [8] (setting [12]); 10.7 (±0.3) g with STZ-diabetic rats [9] (naïve STZ-diabetic rats, Compound 1 800 pmol/kg, morphine 10.4 μmol/kg s.c. bolus). In addition, the “mean (±SEM) peak ΔPWT” value in series [8] (setting [11]) is listed as 4.4 (±0.4) g; in series [8] (setting [12]) it was 0.5 (±0.3) g. In addition, the “tolerance after 7-day continuous s.c. infusion” value in series [8] (non-diabetic rats) is “antinociceptive tolerance developed”. In [8] (non-diabetic rats, after 2-day washout), the “antinociception after second bolus, naïve vs "tolerant" rats” value was “tolerant to the antinociceptive effects of morphine”. Also, the “tolerance after 7-day s.c. infusion” value with STZ-diabetic rats [9] (STZ-diabetic rats) was “antinociceptive tolerance developed”. Also, the “anti-allodynia after second bolus (tolerance status)” value in the series with STZ-diabetic rats [9] (STZ-diabetic rats, after 2-day washout, morphine 10.5 μmol/kg, Compound 1 800 pmol/kg) is listed as “insignificant anti-allodynia”. In addition, the “time of peak anti-allodynia post-dosing” value in the series on STZ-diabetic rats [9] (naïve STZ-diabetic rats, first s.c. bolus) turned out to be 1 h.
